Among the data in patent publication US20080269267A1, “KINASE INHIBITORS USEFUL FOR THE TREATMENT OF MYLEOPROLIFIC DISEASES AND OTHER PROLIFERATIVE DISEASES” (Deciphera Pharmaceuticals, LLC, priority 2007, published 2008) are GI50 and IC50 values, retold here.

Experiment [1] concerns the target T1, BaF3 cells transfected with T315I p210 BCR-Abl (Homo sapiens, UniProt P00519, T315I, cells depend on it).
T1 construct: fused on or other part: P11274 (Breakpoint cluster region protein)
Nature of the experiment: Ba/F3 p210 T315I whole cell proliferation assay (Cell Titer Blue, 72 hours). It counts as cell-based. Conditions: 72 hours incubation; read-out: Ba/F3 p210 T315I whole cell proliferation assay, antiproliferation IC50. As for the experimental part:
(§1) BaF3 cells (parental or transfected with the following: wild type p210 BCR-Abl and T315I p210 BCR-Abl was obtained from Professor Richard Van Etten (New England Medical Center, Boston, Mass.). Briefly, cells were grown in RPMI 1640 supplemented with 10% characterized fetal bovine serum (HyClone, Logan, Utah) at 37 degrees Celsius, 5% CO2, 95% humidity. Cells were allowed to expand until reaching 80% saturation at which point they were subcultured or harvested for assay use.
(§2) A serial dilution of test compound was dispensed into a 96 well black clear bottom plate (Corning, Corning, N.Y.). For each cell line, three thousand cells were added per well in complete growth medium. Plates were incubated for 72 hours at 37 degrees Celsius, 5% CO2, 95% humidity. At the end of the incubation period Cell Titer Blue (Promega, Madison, Wis.) was added to each well and an additional 4.5 hour incubation at 37 degrees Celsius, 5% CO2, 95% humidity was performed. Plates were then read on a BMG Fluostar Optima (BMG, Durham, N.C.) using an excitation of 544 nm and an emission of 612 nm. Data was analyzed using Prism software (Graphpad, San Diego, Calif.) to calculate IC50's.
Background: Resazurin is reduced to fluorescent resorufin, in cell work by metabolically active cells.

A further experiment addresses T2, Abl kinase (SEQ ID NO:1) (Homo sapiens, UniProt P00519).
T2 construct: purchased deCode Genetics
T2 sequence (P00519 with tags, fused parts or gaps): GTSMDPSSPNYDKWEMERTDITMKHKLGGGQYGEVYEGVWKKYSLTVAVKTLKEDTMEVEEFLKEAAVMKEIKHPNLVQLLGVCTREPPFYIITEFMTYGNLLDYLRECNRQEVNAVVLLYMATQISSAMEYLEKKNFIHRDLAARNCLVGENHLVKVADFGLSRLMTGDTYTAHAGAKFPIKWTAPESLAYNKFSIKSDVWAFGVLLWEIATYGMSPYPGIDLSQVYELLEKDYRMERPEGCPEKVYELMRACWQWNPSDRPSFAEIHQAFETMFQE
Description: Abl kinase assay (pyruvate kinase/lactate dehydrogenase coupled, ADP production). The note with it: 2 h preincubation at 30° C., ATP 500 μM; read-out: Abl Enzyme Assay, biochemical IC50. As for the experimental part: Abl Kinase (SEQ ID NO:1) Assay
Activity of Abl kinase (SEQ ID NO:1) was determined by following the production of ADP from the kinase reaction through coupling with the pyruvate kinase/lactate dehydrogenase system (e.g., Schindler, et al. Science (2000) 289, 1938-1942). In this assay, the oxidation of NADH (thus the decrease at A340nm) was continuously monitored spectrophometrically. The reaction mixture (100 μl) contained Abl kinase (1 nM. Abl from deCode Genetics), peptide substrate (EAIYAAPFAKKK. 0.2 mM), MgCl2 (10 mM), pyruvate kinase (4 units), lactate dehydrogenase (0.7 units), phosphoenol pyruvate (1 mM), and NADH (0.28 mM) in 90 mM Tris buffer containing 0.2% octyl-glucoside and 3.5% DMSO, pH 7.5. Test compounds were incubated with Abl (SEQ ID NO:1) and other reaction reagents at 30° C. for 2 h before ATP (500 μM) was added to start the reaction. The absorption at 340 nm was monitored continuously for 2 hours at 30° C. on Polarstar Optima plate reader (BMG). The reaction rate was calculated using the 1.0 to 2.0 h time frame. Percent inhibition was obtained by comparison of reaction rate with that of a control (i.e. with no test compound). IC50 values were calculated from a series of percent inhibition values determined at a range of inhibitor concentrations using software routines as implemented in the GraphPad Prism software package.

Experiment [2] deals with T3, BaF3 cells transfected with wild type p210 BCR-Abl (Homo sapiens, UniProt P00519).
T3 construct: fused on or other part: P11274 (Breakpoint cluster region protein)
Description: Ba/F3 p210 whole cell proliferation assay (Cell Titer Blue, 72 hours). Format: cell-based. The note with it: 72 hours incubation; read-out: Ba/F3 p210 whole cell proliferation assay, antiproliferation IC50. As for the experimental part: as §1, §2

Experiment [3] concerns the target T4, T315I Abl kinase (SEQ ID NO:2) (Homo sapiens, UniProt P00519, T315I).
T4 construct: purchased deCode Genetics
T4 sequence (P00519 with tags, fused parts or gaps T315I): T2 sequence (P00519 with tags, fused parts or gaps) with T94I
Description: T315I Abl kinase assay (pyruvate kinase/lactate dehydrogenase coupled). The note with it: 1 h preincubation at 30° C., ATP 500 μM; read-out: Abl T315l Enzyme Assay, biochemical IC50. How it is done: Abl Kinase (SEQ ID NO:2) Assay
Activity of T315I Abl kinase (SEQ ID NO:2) was determined by following the production of ADP from the kinase reaction through coupling with the pyruvate kinase/lactate dehydrogenase system (e.g., Schindler, et al. Science (2000) 289, 1938-1942). In this assay, the oxidation of NADH (thus the decrease at A340nm) was continuously monitored spectrophometrically. The reaction mixture (100 μl) contained Abl kinase (4.4 nM. […] Abl from deCode Genetics), peptide substrate (EAIYAAPFAKKK, 0.2 mM), MgCl2 (10 mM), pyruvate kinase (4 units), lactate dehydrogenase (0.7 units), phosphoenol pyruvate (1 mM), and NADH (0.28 mM) in 90 mM Tris buffer containing 0.2% octyl-glucoside and 1% DMSO, pH 7.5. Test compounds were incubated with T315I Abl (SEQ ID NO:2) and other reaction reagents at 30° C. for 1 h before ATP (500 μM) was added to start the reaction. The absorption at 340 nm was monitored continuously for 2 hours at 30° C. on Polarstar Optima plate reader (BMG). The reaction rate was calculated using the 1.0 to 2.0 h time frame. Percent inhibition was obtained by comparison of reaction rate with that of a control (i.e. with no test compound). IC50 values were calculated from a series of percent inhibition values determined at a range of inhibitor concentrations using software routines as implemented in the GraphPad Prism software package.

In experiment [4] the target is T5, C-Met kinase (SEQ ID NO:10) (Homo sapiens, UniProt P08581).
T5 construct: purchased Invitrogen PV3143
T5 sequence (P08581 with tags, fused parts or gaps): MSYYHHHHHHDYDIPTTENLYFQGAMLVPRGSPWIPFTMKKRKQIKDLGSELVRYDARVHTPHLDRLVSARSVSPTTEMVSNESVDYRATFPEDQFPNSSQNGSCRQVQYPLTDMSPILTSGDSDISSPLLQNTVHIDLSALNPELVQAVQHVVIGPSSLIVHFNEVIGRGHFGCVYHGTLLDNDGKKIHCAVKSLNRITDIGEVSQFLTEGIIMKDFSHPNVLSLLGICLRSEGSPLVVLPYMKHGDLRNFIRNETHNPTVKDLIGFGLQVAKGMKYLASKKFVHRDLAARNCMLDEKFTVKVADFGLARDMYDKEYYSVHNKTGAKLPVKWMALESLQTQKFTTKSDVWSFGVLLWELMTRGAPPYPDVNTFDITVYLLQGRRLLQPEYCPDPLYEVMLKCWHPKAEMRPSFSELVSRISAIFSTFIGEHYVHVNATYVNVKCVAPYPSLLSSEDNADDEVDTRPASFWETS
Nature of the experiment: C-Met kinase assay (pyruvate kinase/lactate dehydrogenase coupled). The note with it: 0.5 h preincubation at 22° C., ATP 100 μM; read-out: c-Met Enzyme Assay, biochemical IC50. As for the experimental part:
C-Met Kinase (SEQ ID NO:10) Assay
Activity of C-Met kinase (SEQ ID NO:10) was determined by following the production of ADP from the kinase reaction through coupling with the pyruvate kinase/lactate dehydrogenase system (e.g., Schindler, et al. Science (2000) 289, 1938-1942). In this assay, the oxidation of NADH (thus the decrease at A340 nm) was continuously monitored spectrophometrically. The reaction mixture (100 μl) contained C-Met (c-Met residues; 956-1390, from Invitrogen, catalogue #PV3143, 6 nM), polyE4Y (1 mg/ml), MgCl2 (10 mM), pyruvate kinase (4 units), lactate dehydrogenase (0.7 units), phosphoenol pyruvate (1 mM), and NADH (0.28 mM) in 90 mM Tris buffer containing 0.25 mM DTT, 0.2% octyl-glucoside and 1% DMSO, pH 7.5. Test compounds were incubated with C-Met (SEQ ID NO:10) and other reaction reagents at 22° C. for 0.5 h before ATP (100 μM) was added to start the reaction. The absorption at 340 n=was monitored continuously for 2 hours at 30° C. on Polarstar Optima plate reader (BMG). The reaction rate was calculated using the 1.0 to 2.0 h time frame. Percent inhibition was obtained by comparison of reaction rate with that of a control (i.e. with no test compound). IC50 values were calculated from a series of percent inhibition values determined at a range of inhibitor concentrations using software routines as implemented in the GraphPad Prism software package.

Experiment [5] addresses B-Raf(V600E) kinase (SEQ ID NO:11) (Homo sapiens, UniProt P15056, V600E). Description: B-Raf(V600E) kinase assay (pyruvate kinase/lactate dehydrogenase coupled, MEK1 substrate). Conditions: 1 h preincubation at 30° C., ATP 0.2 mM; read-out: B-Raf V600E Enzyme Assay, biochemical IC50. As for the experimental part:
B-Raf(V600E) Kinase Assay
The activity of B-Raf(V600E) kinase (SEQ ID NO:11) was determined by following the formation of ADP from the reaction through coupling with the pyruvate kinase/lactate dehydrogenase system (e.g., Schindler, et al. Science (2000) 289, 1938-1942). In this assay, the oxidation of NADH (thus the decrease at A340nm) was continuously monitored spectrophotometrically. The reaction mixture (100 μl) contained B-Raf(V600E) kinase (0.34 nM nominal concentration, SEQ ID NO:11), unphosphorylated, full-length MEK1 (42 nM, SEQ ID NO:12), MgCl2 (13 mM), pyruvate kinase (3.5 units), lactate dehydrogenase (5.5 units), phosphoenolpyruvate (1 mM), and NADH (0.28 mM), in 60 mM Tris buffer, containing 0.13% octyl-glucoside and 3.5% DMSO concentration at pH 7.5. The test compounds were incubated with the reaction mixture at 30° C. for 1 h. The reaction was initiated by adding ATP (0.2 mM, final concentration). The absorption at 340 nm was continuously monitored for 3 h at 30° C. on a Polarstar Optima plate reader (BMG). The reaction rate was calculated using the 0.5 h to 1.5 h time frame. Percent inhibition was obtained by comparison of reaction rate with that of a control (i.e. with no test compound). IC50 values were calculated from a series of percent inhibition values determined at a range of inhibitor concentrations using software routines as implemented in the GraphPad Prism software package.

Positions count from the first letter of the chain named. Counter-ions that a name gives are not always drawn. Bounds are passed on as bounds.

Chain of B-Raf(V600E) kinase (SEQ ID NO:11) (P15056 with tags, fused parts or gaps V600E): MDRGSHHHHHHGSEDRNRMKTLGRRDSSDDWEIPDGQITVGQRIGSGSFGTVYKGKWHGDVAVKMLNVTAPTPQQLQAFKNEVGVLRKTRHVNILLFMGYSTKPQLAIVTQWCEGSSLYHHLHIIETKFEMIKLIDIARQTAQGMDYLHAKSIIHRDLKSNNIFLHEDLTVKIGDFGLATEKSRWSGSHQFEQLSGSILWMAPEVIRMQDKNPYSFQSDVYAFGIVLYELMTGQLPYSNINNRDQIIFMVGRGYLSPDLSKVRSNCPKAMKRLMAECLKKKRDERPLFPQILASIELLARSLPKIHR

The term IC50 denotes the concentration that inhibits the measured activity by half. Take `Cn1cc(-c2cc(Oc3ccc(NC(=O)Nc4cc(C(C)(C)C)nn4-c4ccccc4)c(F)c3)ccn2)cn1` [Example 1, 1-(3-t-butyl-1-phenyl-1H-pyrazol-5-yl)-3-(2-fluoro-4-(2-(1-methyl-1H-pyrazol-4-yl)pyridin-4-yloxy)phenyl)urea]: the GI50 in experiment [1] and in experiment [2] was under 100 nM in each case. Also, the concentration for half-maximal inhibition (IC50) (at Abl kinase (SEQ ID NO:1); in experiment [3]; in experiment [4]) was under 100 nM in each case.
For the compound `CCCn1cc(-c2cc(Oc3ccc(NC(=O)Nc4cc(CC)nn4-c4cccc(C#N)c4)c(F)c3)ccn2)cn1` [Example 15, 1-(1-(3-cyanophenyl)-S-ethyl-1H-pyrazol-5-yl)-3-(2-fluoro-4-(2-(1-propyl-1H-pyrazol-4-yl)pyridin-4-yloxy)phenyl)urea], the GI50 in experiment [1] and in experiment [2] was under 100 nM in each case. Moreover, the IC50 in experiment [5] is under 1000 nM; on Abl kinase (SEQ ID NO:1) it was under 100 nM; in experiment [4], under 1000 nM.
Turning to `CCc1cc(NC(=O)Nc2ccc(Oc3ccnc(-c4cnn(CC)c4)c3)cc2F)n(-c2cccc(C#N)c2)n1` [Example 18, 1-(1-(3-cyanophenyl)-3-ethyl-1H-pyrazol-5-yl)-3-(4-(2-(1-ethyl-1H-pyrazol-4-yl)pyridin-4-yloxy)-2-fluorophenyl)urea], the GI50 in experiment [1] and in experiment [2] was under 100 nM each time. For the same compound, the IC50 was under 1000 nM in experiment [5], under 100 nM at Abl kinase (SEQ ID NO:1) and under 1000 nM in experiment [4].
In the case of `CC(C)n1ncc(NC(=O)Nc2ccc(Oc3ccnc(-c4cnn(C)c4)c3)cc2F)c1-c1ccccc1` [Example 20, 1-(2-fluoro-4-(2-(1-methyl-1H-pyrazol-4-yl)pyridin-4-yloxy)phenyl)-3-(1-isopropyl-5-phenyl-1H-pyrazol-4-yl)urea], the GI50 in experiment [1] is under 1000 nM; in experiment [2], under 100 nM. The IC50 in experiment [5] was under 10000 nM; on Abl kinase (SEQ ID NO:1), under 100 nM.
Regarding `CCn1ncc(NC(=O)Nc2ccc(Oc3ccnc(-c4cnn(C)c4)c3)cc2F)c1-c1ccccc1` [Example 22, 1-(1-ethyl-5-phenyl-1H-pyrazol-4-yl)-3-(2-fluoro-4-(2-(1-methyl-1H-pyrazol-4-yl)pyridin-4-yloxy)phenyl)urea hydrochloride], the concentration for half-maximal inhibition (IC50) in experiment [5] was under 10000 nM; at Abl kinase (SEQ ID NO:1) it was under 1000 nM.
`CCn1cc(NC(=O)Nc2ccc(Oc3ccnc(-c4cnn(C)c4)c3)cc2F)c(-c2ccccc2)n1` [Example 23, 1-(1-ethyl-3-phenyl-1H-pyrazol-4-yl)-3-(2-fluoro-4-(2-(1-methyl-1H-pyrazol-4-yl)pyridin-4-yloxy)phenyl)urea hydrochloride]: the IC50 in experiment [5] is under 10000 nM; on Abl kinase (SEQ ID NO:1), under 100 nM.
